In US7282512B2, “Cycloalkyl ketoamides derivatives useful as cathepsin K inhibitors” (SmithKline Beecham Corporation, priority 2002, dated 2007):

Each compound was assayed against T1, human cathepsin K (Homo sapiens, UniProt P43235) (assay: cathepsin K inhibition assay, fluorogenic substrate Cbz-Phe-Arg-AMC, progress curve method). Settings: Table 1; human recombinant enzyme, pH 5.5, 30° C., 10 μM substrate; read-out: hcatK Ki.
T1 construct: The proform of cathepsin K was converted to mature cathepsin K by brief exposure to pH 4; made in house; host or cells: baculovirus; Trichoplusia ni High Five cells (virus raised in Sf-9)
T1 sequence (P43235 115-329): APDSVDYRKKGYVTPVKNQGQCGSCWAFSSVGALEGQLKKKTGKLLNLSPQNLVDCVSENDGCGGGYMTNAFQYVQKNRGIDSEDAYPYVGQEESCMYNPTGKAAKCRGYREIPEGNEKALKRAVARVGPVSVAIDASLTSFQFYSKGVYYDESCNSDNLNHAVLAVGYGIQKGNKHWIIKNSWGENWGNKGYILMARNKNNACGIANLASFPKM
Type: biochemical
Procedure: All assays for cathepsin K were carried out with human and rat recombinant enzyme. Assays for cathepsins S & V were also carried out with human recombinant enzyme. Assays for human cathepsins B, H, and L were carried out with enzyme, purchased from Athens Research and Technology, Inc., prepared from human liver tissue. […] A stock substrate solution of Cbz-Phe-Arg-AMC was prepared at a concentration of 50 mM in dimethyl sulfoxide. This substrate was diluted into the assay for a final substrate concentration of 10 μM in the rat cathepsin K, human cathepsin K, and human cathepsin B assays; a final substrate concentration of 5 μM in the human cathepsin L assay; and a final substrate concentration of 2 μM in the human cathepsin V assay.
All assays contained 10% dimethyl sulfoxide. […] All assays were conducted at 30° C. Product fluorescence (excitation at 360 nm; emission at 440 nm, (except cathepsin H which used excitation at 340 nm; emission at 420 nm)) was monitored with a PerSeptive Biosystems Cytofluor II fluorescence plate reader. Product progress curves were generated over 2.3 h monitoring the formation of 7-amino-4-methylcoumarin product (or β-naphthalamide for cathepsin H).
Two liters of Spodoptera frugiperda (Sf-9) cells (ATCC) were grown in Grace's Supplemented medium (Life Technologies) supplemented with 2 g/L glucose, 10% fetal bovine serum (HyClone) and 0.1% pluronic F-68 (Life Technologies). […] The cells continued to grow for 72 h post-infection, before the virus was harvested by centrifugation at 1400×g for 30 min.
One and one-half liters of Trichoplusia ni (T. ni) High Five (™) cells [JRH Biosciences, Woodland, Calif. […] Media were separated from cells at a rate of 1 L/min using the Centritech 100 (™) continuous-flow centrifuge (DuPont) operating at 200×g.
Protein Purification: Media (human and rat) were filtered through a Whatman 3 filter, and then loaded onto a 25 mL Poros HS II (26 mm×47 mm) cation exchange column equilibrated in 25 mM sodium acetate at pH 5.5 (equilibration buffer). The column was washed until the absorbance reached the baseline value, and then the protein was eluted with a linear gradient from 0-2 M sodium chloride in the equilibration buffer. Column fractions were analyzed by SDS-PAGE, N-terminal sequencing, and mass spectrometry. Fractions containing the proform of cathepsin K were pooled and frozen at −80° C. The proform was concentrated in an Amicon Centriprep 10 and fractionated with a Superdex 75 column (26 mm×600 mm, Pharmacia) equilibrated in 400 mM sodium chloride, 25 mM sodium acetate at pH 5.5.
Cathepsin K Activation: The proform of cathepsin K was converted to mature cathepsin K by brief exposure to pH 4 in the presence of 5 mM L-cysteine. Typically, 5 mM L-cysteine was added to 10 mL of approximately 1 mg/mL procathepsin K. One mL of this solution was diluted ten-fold into 450 mM sodium acetate at pH 4.0 containing 5 mM L-cysteine. This solution was reacted at 23° C. for 2 min before neutralization with 2 mL 1.8 M sodium acetate at pH 6.0. The neutralized sample was added to the remaining 9 mL of procathepsin K. The mixture was incubated at 4° C. for 2-3 days. The activated cathepsin K was chromatographed on a Poros HS II column as described above.
Potential inhibitors were evaluated using the progress curve method. Assays were carried out in the presence of variable concentrations of test compound. Reactions were initiated by addition of buffered solutions of inhibitor and substrate to enzyme. Data analysis was conducted according to one of two procedures depending on the appearance of the progress curves in the presence of inhibitors. […] Ki values were calculated from IC50 values using equation 2 assuming a competitive model.

Row | SMILES | Ki
1 | CCCC[C@H](NC(=O)OC1(Cc2ccccc2)CCCC1)C(=O)C(=O)N[C@H](C)c1ccccc1 [Example 2] | 10 to 100 nM
2 | C[C@@H](NC(=O)C(=O)[C@H](CCCCNC(=O)N1CCOCC1)NC(=O)OCC1(Cc2ccc(F)cc2)CCC1)c1ccccc1 [Example 10, [1-(4-Fluorobenzyl)cyclobutyl]methyl(1S)-5-[(4-morpholinylcarbonyl)amino]-1-(oxo{[(1R)-1-phenylethyl]amino}acetyl)pentylcarbamate] | 10 to 100 nM
3 | C[C@@H](NC(=O)C(=O)[C@H](CCCCNC(=O)N1CCOCC1)NC(=O)OCC1(Cc2ccncc2)CCC1)c1ccccc1 [Example 11, [1-(4-Pyridinylmethyl)cyclobutyl]methyl(1S)-5-[(4-morpholinylcarbonyl)amino]-1-(oxo{[(1R)-1-phenylethyl]amino}acetyl)pentylcarbamate] | 1 to 10 nM
4 | CN(C)S(=O)(=O)NCCCC[C@H](NC(=O)OCC1(Cc2ccc(F)cc2)CCC1)C(=O)C(=O)NCc1cccnc1 [Example 16, [1-(4-Fluorobenzyl)cyclobutyl]methyl(1S)-5-{[(dimethylamino)sulfonyl]amino}-1-{oxo[(3-pyridinylmethyl)amino]acetyl}pentylcarbamate] | 10 to 100 nM
5 | CCCC[C@H](NC(=O)OCC1(Cc2nc(-c3ccccc3)cs2)CCC1)C(=O)C(=O)N[C@H](C)c1ccccc1 [Example 18, {1-[(4-phenyl-1,3-thiazol-2-yl)methyl]cyclobutyl}methyl(1S)-1-(oxo{[(1R)-1-phenylethyl]amino}acetyl)pentylcarbamate] | 1 to 10 nM
6 | CCCC[C@H](NC(=O)OCC1(COc2ccnc(N3CCN(C)CC3)n2)CCC1)C(=O)C(=O)N[C@H](C)c1ccccc1 [Example 21, [1-({[2-(4-methyl-1-piperazinyl)-4-pyrimidinyl]oxy}methyl)cyclobutyl]methyl (1S)-1-(oxo{[(1R)-1-phenylethyl]amino}acetyl)pentylcarbamate] | 10 to 100 nM
7 | CCCC[C@H](NC(=O)OCC1(COc2ccnc(N3CCOCC3)n2)CCC1)C(=O)C(=O)N[C@H](C)c1ccccc1 [Example 22, [1-({[2-(4-morpholinyl)-4-pyrimidinyl]oxy}methyl)cyclobutyl]methyl (1S)-1-(oxo{[(1R)-1-phenylethyl]amino}acetyl)pentylcarbamate] | 10 to 100 nM
8 | CCCC[C@H](NC(=O)OCC1(CSc2nc3ccccc3o2)CCC1)C(=O)C(=O)N[C@H](C)c1ccccc1 [Example 24, {1-[(1,3-benzoxazol-2-ylsulfanyl)methyl]cyclobutyl}methyl (1S)-1-(oxo{[(1R)-1-phenylethyl]amino}acetyl)pentylcarbamate] | 10 to 100 nM
9 | CCCC[C@H](NC(=O)OCC1(COc2nc(-c3ccccc3)ns2)CCC1)C(=O)C(=O)N[C@H](C)c1ccccc1 [Example 26, (1-{[(3-phenyl-1,2,4-thiadiazol-5-yl)oxy]methyl}cyclobutyl)methyl (1S)-1-(oxo{[(1R)-1-phenylethyl]amino}acetyl)pentylcarbamate] | 10 to 100 nM
10 | CCCC[C@H](NC(=O)OCC1(COc2ccnc(N3CCN(c4ccccc4)CC3)n2)CCC1)C(=O)C(=O)N[C@H](C)c1ccccc1 [Example 27, [1-({[2-(4-phenyl-1-piperazinyl)-4-pyrimidinyl]oxy}methyl)cyclobutyl]methyl (1S)-1-(oxo{[(1R)-1-phenylethyl]amino}acetyl)pentylcarbamate] | 10 to 100 nM

Other lines, results leading:

Row | Ki | SMILES
11 | 10 to 100 nM | CCCCC(NC(=O)OCC1(COc2nnc(C)cc2-c2ccccc2)CCC1)C(=O)C(=O)N[C@H](C)c1ccccc1 (stereo in doubt) [Example 32, (1-{[(6-methyl-4-phenylpyridazin-3-yl)oxy]methyl}cyclobutyl)methyl (1R)-1-(oxo{[(1R)-1-phenylethyl]amino}acetyl)pentylcarbamate]
12 | 100 to 1000 nM | CCCC[C@H](NC(=O)OC1(Cc2ccccc2)CCC1)C(=O)C(=O)N[C@H](C)c1ccccc1 [Example 1, 1-Benzylcyclobutyl (1S)-1-(oxo{[(1R)-1-phenylethyl]amino}acetyl)pentylcarbamate]
13 | 100 to 1000 nM | CCCC[C@H](NC(=O)OC1(Cc2ccccc2)CCCCC1)C(=O)C(=O)N[C@H](C)c1ccccc1 [Example 4, 1-Benzylcyclohexyl(1S)-1-(oxo{[(1R)-1-phenylethyl]amino}acetyl)pentylcarbamate]
14 | 10 to 100 nM | C[C@@H](NC(=O)C(=O)[C@H](CCCCNC(=O)N1CCOCC1)NC(=O)OCC1(Cc2ccccc2)CCCCC1)c1ccccc1 [Example 9, (1-Benzylcyclohexyl)methyl(1S)-5-[(4-morpholinylcarbonyl)amino]-1-(oxo{[(1R)-1-phenylethy]amino}acetyl)pentylcarbamate]
15 | 100 to 1000 nM | C[C@@H](NC(=O)C(=O)[C@H](CCCCNC(=O)N1CCOCC1)NC(=O)OCC1(Cc2cccnc2)CCC1)c1ccccc1 [Example 12, [1-(3-Pyridinylmethyl)cyclobutyl]methyl(1S)-5-[(4-morpholinylcarbonyl)amino]-1-(oxo{[(1R)-1-phenylethyl]amino}acetyl)pentylcarbamate]
16 | 10 to 100 nM | CNC(=O)NCCCC[C@H](NC(=O)OCC1(Cc2c(F)cccc2F)CCC1)C(=O)C(=O)N[C@H](C)c1ccccc1 [Example 13, [1-(2,6-Difluorobenzyl)cyclobutyl]methyl(1S)-5-{[(methylamino)carbonyl]amino}-1-(oxo{[(1R)-1-phenylethyl]amino}acetyl)pentylcarbamate]
17 | < 1 nM | CCCC[C@H](NC(=O)OCC1(Cc2ccc(F)cc2)CCC1)C(=O)C(=O)Nc1ccn[nH]1 [Example 14, [1-(4-Fluorobenzyl)cyclobutyl]methyl(1S)-1-[oxo(1H-pyrazol-5-ylamino)acetyl]pentylcarbamate]
18 | 10 to 100 nM | CCCC[C@H](NC(=O)OCC1(CSc2nccn2C)CCC1)C(=O)C(=O)N[C@H](C)c1ccccc1 [Example 19, (1-{[(1-methyl-1H-imidazol-2-yl)sulfanyl]methyl}cyclobutyl)methyl (1S)-1-(oxo{[(1R)-1-phenylethyl]amino}acetyl)pentylcarbamate]
19 | 100 to 1000 nM | CCCC[C@H](NC(=O)OCC1(COc2ccnc(Cl)n2)CCC1)C(=O)C(=O)N[C@H](C)c1ccccc1 [Example 20, (1-{[(2-chloro-4-pyrimidinyl)oxy]methyl}cyclobutyl)methyl(1S)-1-(oxo{[(1R)-1-phenylethyl]amino}acetyl)pentylcarbamate]
20 | 10 to 100 nM | CCCC[C@H](NC(=O)OCC1(CSc2ncccn2)CCC1)C(=O)C(=O)N[C@H](C)c1ccccc1 [Example 23, {1-[(2-pyrimidinylsulfanyl)methyl]cyclobutyl}methyl (1S)-1-(oxo{[(1R)-1-phenylethyl]amino}acetyl)pentylcarbamate]
21 | 10 to 100 nM | CCCC[C@H](NC(=O)OCC1(COc2nccs2)CCC1)C(=O)C(=O)N[C@H](C)c1ccccc1 [Example 25, {1-[(1,3-thiazol-2-yloxy)methyl]cyclobutyl}methyl (1S)-1-(oxo{[(1R)-1-phenylethyl]amino}acetyl)pentylcarbamate]
22 | 10 to 100 nM | CCCC[C@H](NC(=O)OCC1(CSc2nccn2-c2ccccc2)CCC1)C(=O)C(=O)N[C@H](C)c1ccccc1 [Example 28, (1-{[(1-phenyl-1H-imidazol-2-yl)sulfanyl]methyl}cyclobutyl)methyl (1S)-1-(oxo{[(1R)-1-phenylethyl]amino}acetyl)pentylcarbamate]
